# Assay results published in patent publication US20230114241A1, “METHODS OF TREATING EPILEPSY USING THE SAME” (Trevena, Inc., priority 2019, published 2023).
# Tests used:
# [1] = target: T1, human sphingosine-1-phosphate receptor 1 (S1P1) (Homo sapiens, UniProt P21453); test: Inhibition of cAMP production (HTRF cAMP HiRange), S1P1 CHO-K1 cells; assay type: cell-based; conditions: for Emax: CHO-K1, efficacy normalized to maximum efficacy of fingolimod, read-out: hS1P1 CAMP SPAN; for EC50: read-out: hS1P1 CAMP pEC50 (converted)
# Summary of the method: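 CHO-K1 cells co-expressing human S1P1 (C-terminal ProLink tag) and EA-β-arrestin2, plated overnight; after 30 min compound incubation at 37 °C, intracellular cAMP measured by HTRF TR-FRET following 1 h at room temperature. Values normalized to fingolimod.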
# Target sequence in this assay (P21453 whole entry): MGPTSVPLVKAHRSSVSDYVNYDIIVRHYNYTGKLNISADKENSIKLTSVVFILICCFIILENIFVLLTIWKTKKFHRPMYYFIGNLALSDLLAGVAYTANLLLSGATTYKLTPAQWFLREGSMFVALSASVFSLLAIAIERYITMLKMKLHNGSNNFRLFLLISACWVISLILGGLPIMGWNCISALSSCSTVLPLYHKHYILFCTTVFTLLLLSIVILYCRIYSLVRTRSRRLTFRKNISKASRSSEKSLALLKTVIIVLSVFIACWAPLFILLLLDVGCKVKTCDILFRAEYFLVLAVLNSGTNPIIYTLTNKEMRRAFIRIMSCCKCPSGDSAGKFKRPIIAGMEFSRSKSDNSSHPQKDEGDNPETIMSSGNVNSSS
# [2] = target: T1, human sphingosine-1-phosphate receptor 1 (S1P1); test: β-Arrestin2 recruitment assay (PathHunter), S1P1 CHO-K1 cells; assay type: cell-based; conditions: for Emax: efficacy normalized to maximum efficacy of fingolimod, read-out: hS1P1 B-arrestin2 SPAN; for EC50: β-arrestin2 recruitment, read-out: hS1P1 B-arrestin2 pEC50 (converted)
# Summary of the method: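 CHO-K1 cells co-expressing EA-β-arrestin2 and ProLink-tagged human S1P1 plated overnight, then stimulated 60 min at 37 °C. Enzyme-fragment complementation (β-galactosidase) detected after 1 h at room temperature by luminescence; values normalized to fingolimod.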
# Target sequence in this assay (P21453 whole entry): as above
# Target sequence in this assay (P32121 whole entry partner): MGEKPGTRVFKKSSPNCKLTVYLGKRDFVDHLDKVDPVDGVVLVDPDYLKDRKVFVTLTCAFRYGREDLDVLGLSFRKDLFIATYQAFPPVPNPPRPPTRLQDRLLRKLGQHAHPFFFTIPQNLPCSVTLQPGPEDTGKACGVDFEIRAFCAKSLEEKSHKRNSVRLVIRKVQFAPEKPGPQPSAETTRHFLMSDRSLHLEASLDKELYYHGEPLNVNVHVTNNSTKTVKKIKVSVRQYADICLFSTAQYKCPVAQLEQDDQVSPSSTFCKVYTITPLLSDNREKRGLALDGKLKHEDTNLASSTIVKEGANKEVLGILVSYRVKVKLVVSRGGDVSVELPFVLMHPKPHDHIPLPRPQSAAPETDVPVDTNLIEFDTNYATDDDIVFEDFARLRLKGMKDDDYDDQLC
# [3] = inhibition of cAMP production, S1P1
# [4] = inhibition of cAMP production, potency
# [5] = CHO-K1, β-arrestin2 recruitment
SMILES,Emax [1] [%],"EC50 [1, 3] [nM]",Emax ([2]; CHO-K1) [%],EC50 ([2]; S1P1) [nM],Emax ([1]; inhibition of cAMP production) [%],"EC50 [1, 4] [nM]","Emax [2, 5] [%]",EC50 ([2]; potency) [nM]
"CCc1ccccc1-c1nc(-c2ccc3c(c2)nnn3CC(C)(C)CO)no1 [Compound 527, 3-(5-(5-(2-ethylphenyl)-1,2,4-oxadiazol-3-yl)-1H-benzo[d][1,2,3]triazol-1-yl)-2,2-dimethylpropan-1-ol]",> 75,> 316,> 75,> 10000,–,–,–,–
"CC(C)n1nnc2cc(-c3noc(-c4cccc(F)c4)n3)ccc21 [Compound 64, 5-(3-fluorophenyl)-3-(1-isopropyl-benzotriazol-5-yl)-1,2,4-oxadiazole]",–,–,–,–,> 75,< 316,> 75,> 10000
"Cc1ccccc1-c1nsc(-c2ccc3c(ccn3C(C)C)c2)n1 [Compound 381, 5-[3-(2-methylphenyl)-1,2,4-thiadiazol-5-yl]-1-(propan-2-yl)-1H-indole]",< 75,> 316,< 75,< 10000,–,–,–,–
"C=CCn1nc2ccc(-c3nc(-c4ccccc4)no3)cc2n1 [Compound 39, 5-(3-phenyl-1,2,4-oxadiazol-5-yl)-2-(prop-2-en-1-yl)-2H-1,2,3-benzotriazole]",–,–,–,–,< 75,> 316,< 75,> 10000
"CC(C)Cn1nnc2cc(-c3nc4c(Cl)cccc4o3)ccc21 [Compound 453, 4-chloro-2-(1-isobutyl-1H-benzo[d][1,2,3]triazol-5-yl)benzo[d]oxazole]",> 75,< 316,< 75,–,–,–,–,–
"CC(C)n1nnc2cc(-c3noc(C4CCC4)n3)ccc21 [Compound 18, 5-(5-cyclobutyl-1,2,4-oxadiazol-3-yl)-1-(propan-2-yl)-1H-1,2,3-benzotriazole]",–,–,–,–,< 75,> 316,< 75,> 10000
"Cn1cnc2cc(-c3nnc(-c4ccc(NCC(F)F)c(C#N)c4)o3)ccc21 [Compound 573, 2-[(2,2-difluoro-ethyl)amino]-5-[5-(1-methyl-1H-1,3-benzodiazol-5-yl)-1,3,4-oxadiazol-2-yl]benzonitrile]",< 75,> 316,< 75,> 10000,–,–,–,–
"Cn1cnc2ccc(-c3nnc(-c4ccc(NCC(F)F)c(C#N)c4)o3)cc21 [Compound 580, 2-[(2,2-difluoro-ethyl)amino]-5-[5-(1-methyl-1H-1,3-benzodiazol-6-yl)-1,3,4-oxadiazol-2-yl]benzonitrile]",> 75,< 316,> 75,< 10000,–,–,–,–
"CCC1(CC)C/C(=N/O)c2cc(-c3nc(-c4cccnc4)no3)ccc2O1 [Compound 430, N-[(4Z)-2,2-diethyl-6-[3-(pyridin-3-yl)-1,2,4-oxadiazol-5-yl]-3,4-dihydro-2H-1-benzopyran-4-ylidene]hydroxylamine]",> 75,> 316,> 75,> 10000,–,–,–,–
"CC1(C)Oc2ccc(-c3nc(-c4ccncc4)no3)cc2C1=O [Compound 480, 2,2-dimethyl-5-[3-(pyridin-4-yl)-1,2,4-oxadiazol-5-yl]-2,3-dihydro-1-benzofuran-3-one]",> 75,> 316,< 75,> 10000,–,–,–,–
"CCC1(CC)CC(=O)c2cc(-c3nc(-c4ccccc4OC)no3)ccc2O1 [Compound 268, 2,2-diethyl-6-[3-(2-methoxyphenyl)-1,2,4-oxadiazol-5-yl]chroman-4-one]",–,–,–,–,> 75,< 316,> 75,< 10000
"CC(C)Nc1ccc(-c2nc(-c3ccc4c(c3)NC(=O)CC4)no2)cc1C#N [Compound 435, 2-(isopropylamino)-5-(3-(2-oxo-1,2,3,4-tetrahydroquinolin-7-yl)-1,2,4-oxadiazol-5-yl)benzonitrile]",> 75,< 316,> 75,< 10000,–,–,–,–
"COc1ccc(-c2nc(-c3ccc4c(ccn4C(C)C)c3)no2)cc1 [Compound 393, 3-(1-isopropyl-1H-indol-5-yl)-5-(4-methoxyphenyl)-1,2,4-oxadiazole]",< 75,> 316,< 75,> 10000,–,–,–,–
"CC(C)Nc1ccc(-c2nnc(-c3ccc4c(c3)C(=O)NCC4)o2)cc1C#N [Compound 638, 5-[5-(1-oxo-1,2,3,4-tetrahydroisoquinolin-7-yl)-1,3,4-oxadiazol-2-yl]-2-[(propan-2-yl)amino]benzonitrile]",< 75,< 316,< 75,> 10000,–,–,–,–
"N#Cc1cc(-c2nnc(-c3cccc4[nH]cnc34)o2)ccc1NCC(F)F [Compound 586, 5-[5-(1H-1,3-benzodiazol-4-yl)-1,3,4-oxadiazol-2-yl]-2-[(2,2-difluoro-ethyl)amino]benzonitrile]",> 75,< 316,> 75,< 10000,–,–,–,–
"CCC1(CC)CC(=O)c2cc(-c3ncc(-c4ccnc(O)c4)cn3)ccc2O1 [Compound 552, 2,2-diethyl-6-(5-(2-hydroxypyridin-4-yl)pyrimidin-2-yl)chroman-4-one]",< 75,> 316,< 75,> 10000,–,–,–,–
"CC(C)n1nnc2cc(-c3noc(-c4cccc5c4CCC5O)n3)ccc21 (centres unmarked) [Compound 636, 4-{3-[1-(propan-2-yl)-1H-1,2,3-benzotriazol-5-yl]-1,2,4-oxadiazol-5-yl}-2,3-dihydro-1H-inden-1-ol]",> 75,< 316,> 75,< 10000,–,–,–,–
"CC(C)Nc1ccc(-c2nnc(-c3ccc4oc(=O)[nH]c4c3)o2)cc1C#N [Compound 637, 5-[5-(2-oxo-2,3-dihydro-1,3-benzoxazol-5-yl)-1,3,4-oxadiazol-2-yl]-2-[(propan-2-yl)amino]benzonitrile]",> 75,< 316,> 75,< 10000,–,–,–,–
"O=C1CC2(CCCC2)Oc2ccc(-c3nc(-c4cccnc4)no3)cc21 [Compound 298, 6-[3-(pyridin-3-yl)-1,2,4-oxadiazol-5-yl]-3,4-dihydrospiro[1-benzopyran-2,1′-cyclopentane]-4-one]",–,–,–,–,> 75,> 316,< 75,< 10000
"CC(C)(CO)n1nnc2cc(-c3noc(-c4ccc5nc[nH]c5c4)n3)ccc21 [Compound 642, 2-(5-(5-(1H-benzo[d]imidazol-6-yl)-1,2,4-oxadiazol-3-yl)-1H-benzo[d][1,2,3]triazol-1-yl)-2-methylpropan-1-ol]",< 75,> 316,< 75,–,–,–,–,–
"FC(F)(F)c1cccc(-c2nc(-c3ccc4c(c3)nnn4C3CCCC3)no2)c1 [Compound 12, 3-(1-cyclopentyl-1H-benzo[d][1,2,3]triazol-5-yl)-5-(3-(trifluoro-methyl)phenyl)-1,2,4-oxadiazole]",–,–,–,–,< 75,> 316,< 75,> 10000
"Cc1ccccc1-c1cc(-c2ccc3c(c2)nnn3C(C)C)c[nH]1 [Compound 601, 5-[5-(2-methylphenyl)-1H-pyrrol-3-yl]-1-(propan-2-yl)-1H-1,2,3-benzotriazole]",> 75,> 316,< 75,< 10000,–,–,–,–
"CCC1(CC)CC(=O)c2cc(-c3nc(-c4ccnc(S(N)(=O)=O)c4)no3)ccc2O1 [Compound 616, 4-(5-(2,2-diethyl-4-oxochroman-6-yl)-1,2,4-oxadiazol-3-yl)pyridine-2-sulfonamide]",> 75,< 316,> 75,< 10000,–,–,–,–
"CC(C)C(c1ccccc1)c1noc(-c2ccc3c(c2)nnn3C(C)C)n1 (centres unmarked) [Compound 56, 5-[3-(2-methyl-1-phenyl-propyl)-1,2,4-oxadiazol-5-yl]-1-(propan-2-yl)-1H-1,2,3-benzotriazole]",–,–,–,–,< 75,> 316,< 75,> 10000
"O=C1CCc2cc(-c3nc(-c4cccnc4)no3)ccc2N1 [Compound 386, 6-[3-(pyridin-3-yl)-1,2,4-oxadiazol-5-yl]-1,2,3,4-tetrahydro-quinolin-2-one]",> 75,> 316,< 75,> 10000,–,–,–,–
"CC(C)Cn1nnc2cc(-c3nc4cccc(Br)c4o3)ccc21 [Compound 454, 7-bromo-2-(1-isobutyl-1H-benzo[d][1,2,3]triazol-5-yl)benzo[d]oxazole]",> 75,< 316,> 75,–,–,–,–,–
"CCC1(CC)CC(=O)c2cc(-c3nc(-c4ccnc(N)c4)no3)ccc2O1 [Compound 513, 6-(3-(2-aminopyridin-4-yl)-1,2,4-oxadiazol-5-yl)-2,2-diethyl-chroman-4-one]",> 75,< 316,> 75,< 10000,–,–,–,–
"Cc1ccccc1-c1noc(-c2ccc3scnc3c2)n1 [Compound 362, 5-[3-(2-methylphenyl)-1,2,4-oxadiazol-5-yl]-1,3-benzothiazole]",–,–,–,–,< 75,> 316,< 75,> 10000
"Brc1ccccc1-c1nc(-c2ccc3c(c2)nnn3Cc2ccccn2)no1 [Compound 45, 5-(2-bromophenyl)-3-(1-(pyridin-2-ylmethyl)-1H-benzo[d][1,2,3]triazol-5-yl)-1,2,4-oxadiazole]",–,–,–,–,< 75,> 316,< 75,> 10000
